Columns and labels:
Test in all cases: relative viability (nuclei count vs DMSO), 5 days (fraction); higher = more cells survive
[1] = compound: CCOC1=CC=CC=C1N=NC2=C(NN(C2=O)C3=NC(=CS3)C4=CC=CC=C4)C [BAM7] + O=C(CCCCCCC(=O)Nc1ccccc1)NO [Vorinostat] (partner 1 µM)
Method in brief: (§1)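 Relative viability is defined as nuclei in treated wells over nuclei in vehicle wells. Duplicate plates were run and medians reported. Lung cancer cell lines in 1536-well plates were dosed by pin tool one day after seeding, with one drug or with a fixed anchor-drug dose plus five library-drug doses (not always all listed) in √10 steps, and nuclei were counted after 5 days.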

[2] = compound: CCn1c(-c2nonc2N)nc2c(C#CC(C)(C)O)ncc(OC[C@H]3CCCNC3)c21 + CCNC(=O)c1noc(-c2cc(C(C)C)c(O)cc2O)c1-c1ccc(CN2CCOCC2)cc1 [Luminespib] (partner 0.01 µM)
Method in brief: as §1

[3] = compound: CCn1c(-c2nonc2N)nc2c(C#CC(C)(C)O)ncc(OC[C@H]3CCCNC3)c21 + C[C@]1(O)C[C@@H](c2nc(-c3ccc4ccc(-c5ccccc5)nc4c3)c3c(N)nccn32)C1 [Linsitinib] (partner 1 µM)
Method in brief: as §1

[4] = compound: CCn1c(-c2nonc2N)nc2c(C#CC(C)(C)O)ncc(OC[C@H]3CCCNC3)c21 + O=C(c1cc(Cc2n[nH]c(=O)c3ccccc23)ccc1F)N1CCN(C(=O)C2CC2)CC1 [Olaparib] (partner 8 µM)
Method in brief: as §1

Row | Cell Line | relative viability ([1]; first compound 0.5 µM) | relative viability ([1]; first compound 5 µM) | relative viability ([1]; first compound 15.81 µM) | relative viability ([1]; first compound 50 µM) | relative viability ([2]; first compound 0.01 µM) | relative viability ([2]; first compound 0.03162 µM) | relative viability ([2]; first compound 0.1 µM) | relative viability ([2]; first compound 0.3162 µM) | relative viability ([2]; first compound 1 µM) | relative viability ([3]; first compound 0.01 µM) | relative viability ([3]; first compound 0.03162 µM) | relative viability ([3]; first compound 0.1 µM) | relative viability ([3]; first compound 0.3162 µM) | relative viability ([3]; first compound 1 µM) | relative viability ([4]; first compound 0.01 µM) | relative viability ([4]; first compound 0.03162 µM) | relative viability ([4]; first compound 0.1 µM) | relative viability ([4]; first compound 0.3162 µM) | relative viability ([4]; first compound 1 µM)
1 | LC-2-ad | 0.695 | 0.737 | 0.707 | 0.656 | 0.964 | 0.967 | 1.1 | 1.04 | 0.974 | 0.878 | 0.919 | 0.836 | 0.849 | 0.875 | 0.739 | 0.719 | 0.716 | 0.657 | 0.698
2 | CAL-12T | 0.794 | 0.788 | 0.751 | 0.655 | 0.234 | 1.07 | 0.431 | 0.362 | 0.427 | 0.878 | 0.784 | 0.819 | 0.802 | 0.715 | 0.599 | 0.708 | 0.72 | 0.699 | 0.729
3 | RERF-LC-KJ | 0.62 | 0.601 | 0.485 | 0.416 | 1.12 | 1.31 | 1.27 | 1.19 | 1.1 | 0.91 | 0.871 | 0.855 | 0.856 | 0.903 | 1 | 0.87 | 0.854 | 0.854 | 0.797
4 | BEN | 0.573 | 0.61 | 0.523 | 0.544 | 0.235 | 0.337 | 0.332 | 0.571 | 0.452 | 0.9 | 1.08 | 0.772 | 0.767 | 0.967 | 1.14 | 1.19 | 1.15 | 0.919 | 0.966
5 | EMC-BAC-2 | 0.478 | 0.485 | 0.658 | 0.483 | 1.18 | 1.17 | 1.23 | 1.18 | 1.21 | 0.82 | 0.852 | 0.837 | 0.828 | 0.837 | 0.457 | 0.501 | 0.503 | 0.454 | 0.468
6 | LU99A | 0.512 | 0.54 | 0.488 | 0.553 | 0.254 | 0.21 | 0.239 | 0.307 | 0.248 | 0.473 | 0.524 | 0.551 | 0.579 | 0.548 | 0.282 | 0.312 | 0.251 | 0.258 | 0.288
7 | ABC-1 | 1.04 | 1.45 | 0.983 | 1.18 |  | 0.533 | 1.04 | 0.403 | 0.682 | 0.818 | 0.73 | 0.847 | 0.685 | 0.526 | 0.684 |  | 0.977 | 1.05 | 1.03
8 | NCI-H2347 | 0.691 | 0.653 | 0.516 | 0.588 | 0.396 | 0.0975 |  | 0.516 | 0.31 | 1.05 | 0.983 | 0.958 | 0.904 | 0.991 | 0.567 | 0.512 | 0.6 | 0.608 | 0.549

Reference: the supplement of paper PMC10307832
